The results in this text go back to patent publication US20260226084A1, “DUAL RAF AND TUBULIN INHIBITORS AND METHODS OF USE THEREOF” (Deciphera Pharmaceuticals, LLC, priority 2023, published 2026).

Structures are written as SMILES. Like-named read-outs stand apart in the source and are kept apart here. A value given as a limit tells only on which side of the number the result lay.

One assay concerns MiaPaca-2 cells. In words: MiaPaca-2 Cell Proliferation Assay. The class given is cell-based. Particulars: Homo sapiens. The procedure, abridged:
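Viability was read as resazurin fluorescence (540 nm excitation, 600 nm emission) after 5–6 h with dye. Compounds were tested as serial dilutions in triplicate, with IC50 derived from the dose–response.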

For the next assay, the system named is HCT-116 cells. Put plainly: HCT-116 Cell Proliferation Assay. The class given is cell-based. The settings on record: Homo sapiens. The procedure, abridged: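 HCT-116 cells, 375/well in McCoy's 5A with 10% FBS, exposed to serial compound dilutions in triplicate for 67 to 72 hours at 37 °C. Viability read by resazurin fluorescence (ex 540/em 600 nm) after a further 4 to 5 h; IC50 values calculated.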

The subject of another assay is HPAF-II cells. Put plainly: HPAF-II Cell Proliferation Assay. The class given is cell-based. The settings on record: Homo sapiens. The procedure, abridged: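 HPAF-II cells (750/well) in complete MEM with 10% FBS were exposed to serially diluted compound in triplicate for 115–120 h at 37 °C, 5% CO2. Resazurin was then added for 18–24 h more; fluorescence (ex 540/em 600 nm) gave IC50.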

The test system of assay [1] is tubulin polymerization in HCT-116 cells. Put plainly: Cellular Tubulin Polymerization Assay. Type of assay: cell-based. Particulars: Homo sapiens, Table 5, read-out: Tubulin Cellular. The method, then:
HCT-116 cells (catalog #CCL-247) are obtained from the American Type Culture Collect (ATCC, Manassas, VA). Briefly, cells are grown in McCoy's 5A supplemented with 10% characterized fetal bovine serum (Invitrogen, Carlsbad, CA) and 1% Penicillin/Streptomycin/L-Glutamine at 37° C., 5% CO2, and 95% humidity. Cells are expanded until reaching 70-95% confluency at which point they are subcultured or harvested for assay use. 450000 cells are added per well in 1500 μL complete growth medium in a tissue culture treated, 12-well plate. Plates are incubated for 18 to 24 h at 37° C., 5% CO2, and 95% humidity. At the end of the incubation, 2000 μL of base culture media is added to each well, followed by a serial dilution of compound. Plates are incubated for an additional 1 h at 37° C., 5% CO2, and 95% humidity. Lysates are generated by the addition of 100 μL Lysis and Microtubule Stabilization Buffer 1 (LMS01, Cytoskeleton Inc, Denver, CO) supplemented with GTP (BST06, Cytoskeleton Inc), ATP (BSA04, Cytoskeleton Inc), and Protease Inhibitor Cocktail Stock (PIC02, Cytoskeleton Inc). Cells are scraped off wells using a rubber cell scraper and collected in a clean 96-well plate. Lysates are centrifuged at 1000×g, 37° C. for 10 min and supernatant fraction is placed into an additional 96-well plate. The remaining pellet fraction is reconstituted in 100 μL LMS01 buffer and sonicated for 10 min. Pellet and Supernatant fractions are probed for α-tubulin via western blot analysis on the Jess System or equivalent (Bio-techne, Minneapolis, MN). Data is analyzed using Prism software (Graphpad, San Diego, CA) to calculate IC50values.

Assay [2] has as its target T1, B-Raf kinase (SEQ ID NO: 1) (Homo sapiens, UniProt P15056).
T1 construct: GST (N); purchased Sigma
Put plainly: Biochemical Assay for B-Raf (coupled pyruvate kinase/lactate dehydrogenase assay).

In assay [3] the target is T2, C-Raf kinase (SEQ ID NO: 2) (Homo sapiens, UniProt P04049, Y340D/Y341D).
T2 construct: C-Raf residues 306-end; Y340D, Y341D with; GST (N); purchased Sigma
Put plainly: Biochemical Assay for C-Raf (coupled pyruvate kinase/lactate dehydrogenase assay).

Another assay has as its system Pa16c cells. In words: Pa16c Cell Proliferation Assay. The settings on record: Table 2, read-out: Inhibition of cell proliferation in Pa16c (IC50 class). The class given is cell-based. The procedure, abridged:
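Mouse Pa16c cells, 750/well in DMEM with 10% FBS, exposed to serially diluted compound in triplicate for 67 to 72 h at 37° C. Viability read by resazurin reduction over a further 18 to 24 h (ex 540/em 600 nm). IC50 calculated from the dose-response.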

A further assay deals with T3, Porcine Brain Tubulin (Sus scrofa, UniProt P02550+P02554).
T3 construct: Porcine Brain Tubulin (T240); purchased Cytoskeleton, Inc T240; BK011P; host or cells: porcine brain (tissue-purified)
In words: Biochemical Tubulin Polymerization Assay.

Where [4] appears, read: MIA PaCa-2, Table 5, MiaPaca-2 mutant KRAS pancreatic cancer cell line, read-out: MiaPaca-2.
The mark [5] stands for this setting: Table 5, HCT-116 mutant KRAS colorectal cancer cell line, read-out: HCT-116.
Where [6] appears, read: Table 5, HPAF-II mutant KRAS pancreatic cancer cell line, read-out: HPAF-II.
The mark [7] stands for this setting: 1 mM ATP, read-out: BRAF (inhibition of biochemical activity, IC50).
[8] abbreviates: Table 3, read-out: BRAF (IC50 class).
Setting [9] is: 1 mM ATP, read-out: CRAF (inhibition of biochemical activity, IC50).
Where [10] appears, read: Table 3, read-out: CRAF (IC50 class).
Setting [11] is: MIA PaCa-2, MiaPaca-2 cells, Table 2, read-out: Inhibition of cell proliferation in MiaPaca-2 (IC50 class).
The mark [12] stands for this setting: MIA PaCa-2, Table 3, read-out: MiaPaca-2 (IC50 class).
Where [13] appears, read: HCT-116, HCT-116 cells, Table 2, read-out: Inhibition of cell proliferation in HCT-116 (IC50 class).
Where [14] appears, read: HCT-116, Table 3, read-out: HCT-116 (IC50 class).
Setting [15] is: HPAF-II, HPAF-II cells, Table 2, read-out: Inhibition of cell proliferation in HPAF-II (IC50 class).
[16] abbreviates: HPAF-II, Table 3, read-out: HPAF-II (IC50 class).
The mark [17] stands for this setting: Table 3, Tubulin Biochemical assay, read-out: Tubulin Biochem (IC50 class).

T2 sequence (P04049 307-648 Y340D/Y341D): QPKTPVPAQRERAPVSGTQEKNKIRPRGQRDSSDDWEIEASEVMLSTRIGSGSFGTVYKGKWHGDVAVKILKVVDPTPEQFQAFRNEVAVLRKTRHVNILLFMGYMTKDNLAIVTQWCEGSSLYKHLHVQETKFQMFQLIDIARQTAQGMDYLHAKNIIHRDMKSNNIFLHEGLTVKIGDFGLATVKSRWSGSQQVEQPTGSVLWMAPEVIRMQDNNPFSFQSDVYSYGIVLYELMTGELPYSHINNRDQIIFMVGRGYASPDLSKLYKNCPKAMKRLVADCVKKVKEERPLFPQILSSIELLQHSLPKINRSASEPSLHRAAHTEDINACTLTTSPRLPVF
T1 sequence (P15056 416-766): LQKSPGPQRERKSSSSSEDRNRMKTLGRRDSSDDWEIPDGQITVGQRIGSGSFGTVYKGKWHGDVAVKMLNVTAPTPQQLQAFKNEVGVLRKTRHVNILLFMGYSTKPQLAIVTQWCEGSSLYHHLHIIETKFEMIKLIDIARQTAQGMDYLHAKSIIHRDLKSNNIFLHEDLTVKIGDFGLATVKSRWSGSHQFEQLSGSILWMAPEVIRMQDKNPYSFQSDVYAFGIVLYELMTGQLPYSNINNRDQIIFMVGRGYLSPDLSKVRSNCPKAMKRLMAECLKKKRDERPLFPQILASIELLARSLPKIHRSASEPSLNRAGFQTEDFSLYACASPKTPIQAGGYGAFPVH
T3 sequence (P02550 whole entry): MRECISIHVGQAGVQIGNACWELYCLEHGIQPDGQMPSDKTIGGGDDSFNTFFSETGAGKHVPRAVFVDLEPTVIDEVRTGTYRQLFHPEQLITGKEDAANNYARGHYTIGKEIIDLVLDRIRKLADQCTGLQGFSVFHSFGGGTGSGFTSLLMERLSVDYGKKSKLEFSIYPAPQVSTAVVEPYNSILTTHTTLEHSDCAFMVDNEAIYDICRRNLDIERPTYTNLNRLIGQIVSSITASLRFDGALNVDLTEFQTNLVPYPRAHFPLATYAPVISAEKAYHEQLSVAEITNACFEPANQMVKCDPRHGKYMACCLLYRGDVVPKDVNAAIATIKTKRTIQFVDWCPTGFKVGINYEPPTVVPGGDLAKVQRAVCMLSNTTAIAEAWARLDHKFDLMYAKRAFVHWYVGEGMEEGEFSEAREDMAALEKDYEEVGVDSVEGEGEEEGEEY
T3 sequence (P02554 whole entry): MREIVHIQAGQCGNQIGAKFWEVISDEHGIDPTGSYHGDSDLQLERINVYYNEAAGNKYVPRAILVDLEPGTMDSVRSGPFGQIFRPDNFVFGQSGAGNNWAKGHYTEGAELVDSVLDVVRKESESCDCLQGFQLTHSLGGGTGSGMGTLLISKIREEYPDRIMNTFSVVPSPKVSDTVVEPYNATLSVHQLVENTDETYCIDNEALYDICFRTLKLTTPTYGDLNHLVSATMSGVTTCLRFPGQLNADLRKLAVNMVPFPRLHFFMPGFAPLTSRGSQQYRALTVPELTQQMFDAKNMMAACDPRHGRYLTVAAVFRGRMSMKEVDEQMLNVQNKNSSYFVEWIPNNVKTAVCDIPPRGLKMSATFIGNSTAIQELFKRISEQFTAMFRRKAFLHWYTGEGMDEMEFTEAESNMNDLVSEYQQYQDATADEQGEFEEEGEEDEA

Regarding `C[C@@H](NC(=O)c1ncnc(N)c1Cl)c1ncc(C(=O)Nc2cc(C(F)(F)F)c(Cl)cn2)s1` [Tovorafenib, reference compound], the IC50 (in the assay on MiaPaca-2 cells (setting [4]); in the assay on HCT-116 cells (setting [5]); with HPAF-II cells (setting [6]); in assay [1]) was 1 to 10 µM in each case.

On to `Cc1ccc(NC(=O)c2cncc(C(F)(F)F)c2)cc1-c1cncc(-c2cc(NC(=O)C3CC3)ncn2)c1` [Example 66], for which the IC50 is below 0.1 µM in assay [2] (setting [7]); below 0.1 µM in assay [2] (setting [8]); below 0.1 µM in assay [3] (setting [9]); below 0.1 µM in assay [3] (setting [10]); 0.1 to 0.5 µM in the assay with MiaPaca-2 cells (setting [11]); 0.1 to 0.5 µM with MiaPaca-2 cells (setting [12]). In addition, the IC50 in the assay with HCT-116 cells (setting [13]) was below 0.1 µM; in the assay with HCT-116 cells (setting [14]) it was below 0.1 µM; in the assay on HPAF-II cells (setting [15]), below 0.1 µM; in the assay on HPAF-II cells (setting [16]), below 0.1 µM; in the assay on Pa16c cells, 0.5 to 1 µM; on Porcine Brain Tubulin (setting [17]), above 100 µM.

As to `Cc1ccc(NC(=O)c2cc(C(F)(F)F)cnn2)cc1-c1cc(N[C@H](C)CO)nc(-c2ccnc(NC(=O)C3CC3)c2)c1` [Example 45], the IC50 was below 0.1 µM in assay [2] (setting [7]); below 0.1 µM in assay [2] (setting [8]); below 0.1 µM in assay [3] (setting [9]); below 0.1 µM in assay [3] (setting [10]); 0.1 to 0.5 µM in the assay with MiaPaca-2 cells (setting [11]); 0.1 to 0.5 µM in the assay on MiaPaca-2 cells (setting [12]). The IC50 with HCT-116 cells (setting [13]) was below 0.1 µM; in the assay with HCT-116 cells (setting [14]) it was below 0.1 µM; in the assay on HPAF-II cells (setting [15]), below 0.1 µM; with HPAF-II cells (setting [16]), below 0.1 µM; with Pa16c cells, 0.1 to 0.5 µM; at Porcine Brain Tubulin (setting [17]), 3 to 20 µM.

For `Cc1ccc2c(Nc3cccc(Cl)c3F)nccc2c1NC(=O)c1csc2c(N)ncnc12` [Belvarafenib, reference compound], the IC50 is below 0.1 µM in assay [2] (Table 5, previously disclosed BRAF/CRAF inhibitors, read-out: BRAF); below 0.1 µM in assay [3] (Table 5, previously disclosed BRAF/CRAF inhibitors, read-out: CRAF); above 100 µM at Porcine Brain Tubulin (Table 5, previously disclosed BRAF/CRAF inhibitors, read-out: Tubulin Biochem); 1 to 10 µM in assay [1].

As to `CCCS(=O)(=O)Nc1ccc(F)c(C(=O)c2c[nH]c3ncc(-c4ccc(Cl)cc4)cc23)c1F` [Vemurafenib, vemurafenib], in assay [1], the IC50 lay within 1 to 10 µM.

On to `Cc1ccc(NC(=O)N2CC[C@@H](CC(F)(F)F)C2)cc1-c1cc(N[C@H](C)CO)nc(N2CCOCC2)c1` [Exarafenib, reference compound], for which the IC50 with MiaPaca-2 cells (setting [4]) is 1 to 10 µM; with HCT-116 cells (setting [5]), 0.5 to 1 µM; in the assay on HPAF-II cells (setting [6]) it was 1 to 10 µM; in assay [1], 1 to 10 µM.

As for `Cc1ccc(NC(=O)c2ccnc(C(F)(F)F)c2)cc1-c1cc(OCCO)nc(N2CCOCC2)c1` [Naporafenib], in assay [1], the IC50 fell in the range of 1 to 10 µM.

With `Cc1ccc(NC(=O)c2cc(C(F)(F)F)cnn2)cc1-c1cc(N[C@H](C)CO)nc(-c2cn[nH]c2)c1` [Example 119], the IC50 (in assay [2] (setting [7]); in assay [2] (setting [8]); in assay [3] (setting [9]); in assay [3] (setting [10]); in the assay on MiaPaca-2 cells (setting [11]); in the assay with MiaPaca-2 cells (setting [12])) was below 0.1 µM each time. The IC50 in the assay on HCT-116 cells (setting [13]) was below 0.1 µM; in the assay with HCT-116 cells (setting [14]), below 0.1 µM; with HPAF-II cells (setting [15]), below 0.1 µM; in the assay on HPAF-II cells (setting [16]) it was below 0.1 µM; with Pa16c cells, below 0.1 µM; on Porcine Brain Tubulin (setting [17]), below 3 µM.

As for `CC(C)(C)c1nc(-c2cccc(NS(=O)(=O)c3c(F)cccc3F)c2F)c(-c2ccnc(N)n2)s1` [Dabrafenib, dabrafenib], the IC50 in assay [1] is 1 to 10 µM.
